Earlier results on two compounds are cited in patent US20130143937A1, “CHLORTHALIDONE COMBINATIONS” (Boehringer Ingelheim International GmbH, priority 2003, published 2013).

SMILES strings stand for the structures.

For the data set the following is noted: in vivo.

For the compound `NS(=O)(=O)c1cc(C2(O)NC(=O)c3ccccc32)ccc1Cl` (centres unmarked) [chlorthalidone, 2-chloro-5-(2,3-dihydro-1-hydroxy-3-oxo-1h-isoindol-1-yl)benzene-sulfonamide], the mean plasma half-life was 40 to 60 h.
On to `NS(=O)(=O)c1cc2c(cc1Cl)NCNS2(=O)=O` [hydrochlorothiazide], for which the mean plasma half-life entry is “about 24 hours”.
